Measurements from patent publication USRE43632E1, “1,3-propane diol esters and ethers and methods for their use in drug delivery” (Scarista, Ltd., priority 1995, dated 2012).
Like-named read-outs stand apart in the source and are kept apart here.

Legend:
[1] = tested on: ASPC-1 human pancreatic cancer; experiment: ASPC-1 human pancreatic cancer transplanted subcutaneously into nude mice; type: in vivo
Method: As a specific example of the therapeutic efficacy of the diesters, the 1,3 GLA-EPA propane diol diester was tested in the treatment of the ASPC-1 human pancreatic -cancer transplanted subcutaneously into nude mice which because they lack thymus function are able to accept foreign transplants without rejection. 15 mice were each injected subcutaneously with 5 million ASPC-1 cells suspended in Matrigel and DMEM buffer. In all animals a tumour developed whose size could be measured using callipers and whose volume could be estimated from the linear dimensions. Tumour size in each animal was measured twice weekly for five weeks. The animals were divided into three groups. 5 animals were used as controls and received 10 g/kg corn oil per day only. 5 animals received 10 g/kg corn oil per day but in addition received two injections per week of a dose of 1.5 g/kg of the GLA-EPA diester. […] The other 5 animals instead of the corn oil received 10 g/kg/day of the GLA-EPA diester. The treatments were continued for three weeks and then the tumours were allowed to grow for a further two weeks before the animals were sacrificed and the tumours excised and weighed. The mean tumour weights were: control group, 1240±290 mg; intravenous GLA-EPA group, 820±180 mg; oral GLA-EPA group, 490±160 mg. […] Thus the diesters are biologically active ways of administering the various fatty acids. The diesters can therefore be reasonably expected to exert the many desirable effects of the fatty acids which have been noted in many publications in the literature (e.g. Horrobin D F, ed., Omega-6 Essential Fatty Acids: Pathophysiology and Roles in Clinical Medicine: Wiley-Liss, New York, 1990.Simopoulos A P et al, eds, Health Effects of Omega-3 Polyunsaturated Fatty Acids in Seafoods, Karger, Basel, 1991. Fats and Oils in Human Nutrition, World Health Organization, Rome, 1994. Unsaturated Fatty Acids: Nutritional and Physiological Significance. British Nutrition Foundation, Chapman and Hall, London, 1992).

[2] = In vivo delivery, release and metabolism of diesters after oral or intravenous administration
Method: (§1) GLA was administered in the form of either GLA-GLA or GLA-EPA and EPA was administered in the form of GLA-EPA or EPA-EPA. The diesters were given either orally by gavage or intravenously in the form of a 20% emulsion made using 2% of oat galactolipid as an emulsifier in doses from about 0.1 to 2.0 g/kg. Animals were killed after 1, 2, 4, 8 and 24 hours and plasma, red cells and liver collected. The presence of the unmetabolised diesters was identified by high pressure liquid chromatography. The presence of fatty acids derived from the diesters and of metabolites of those fatty acids was checked by lipid extraction of the liver, plasma or red cells, by separation of that lipid fraction into triglycerides, phospholipids, cholesterol esters and free fatty acids by thin layer chromatography, by methylation of the fatty acids derived from those separated fractions and by analysis of those fatty acids using gas chromatography using methods well described in standard texts.

[3] = in vivo, po
Method: as §1

[4] = tested on: normal fibroblast line, a breast cancer line and a malignant melanoma line; details: all cell lines: normal fibroblast, results set out in EPA-0 675 103; cited from earlier work
fasted rats = experiment: Gastrointestinal ulceration in fasted rats; details: indomethacin 5-30 mg/kg or same amount as diester, sacrificed after 24 hours
Method: Doses of indomethacin known to cause gastrointestinal ulceration (5-30 mg/kg) were given to fasted rats either in the form of free indomnethacin or the same amount of indomethacin in a 1,3-propane diol diester with GLA in the other position. The animals were sacrificed after 24 hours and the whole gastrointestinal tract examined for ulceration.

## CC/C=C\C/C=C\C/C=C\C/C=C\C/C=C\CCCC(=O)OCCCOC(=O)CCCC/C=C\C/C=C\C/C=C\CCCCC [GLA-EPA, 1-(z,z,z-Octadeca-6,9,12-trienoyloxy)-3-(z,z,z,z,z-eicosa-5,8,11,14,17-pentaenoyloxy)propane]
[1]; both oral and intravenous administration
  tumour growth: substantially inhibited
[1]; intravenous, 1.5 g/kg two injections per week for three weeks, 20% emulsion, tumours weighed at five weeks
  mean tumour weight: 820 ± 180 mg
[1]; mouse, in vivo
  side effects or distress in the animals: without causing any side effects or distress
[1]; nude mice, 20% emulsion with 2% oat galactolipid, 1.5 g/kg twice weekly
  tolerability of the intravenous emulsion: very well tolerated and caused no haemolysis or thrombophlebitis
[2]; intravenous infusion and oral administration of the diester emulsion
  in vivo release of free GLA and EPA: rapid in vivo release of free GLA and EPA

## CCCCC/C=C\C/C=C\C/C=C\CCCCC(=O)OCCCOC(=O)CCCC/C=C\C/C=C\C/C=C\CCCCC [GLA-GLA, 1,3-(di-z,z,z-Octadeca-6,9,12-trienoyloxy)propane]
[3]
  absorption and release of active moieties: absorbed following oral administration and to release their active moieties

## CCCCC/C=C\C/C=C\C/C=C\CCCCC(=O)OCCCOC(=O)Cc1c(C)n(C(=O)c2ccc(Cl)cc2)c2ccc(OC)cc12 [GLA-indomethacin, 1-(z,z,z-Octadeca-6,9,12-trienoyloxy)-3-(I-(4-chlorobenzoyl)-5-methoxy-2-methyl-indole-3-acetyloxy)propane]
[3]
  absorption and release of active moieties: absorbed following oral administration and to release their active moieties

## COc1ccc2c(c1)c(CC(=O)O)c(C)n2C(=O)c1ccc(Cl)cc1 [indomethacin, reference compound]
[4]
  intracellular level after incubation (cell penetration): very low
Fasted rats
  ulceration of the whole gastrointestinal tract: extensive ulceration

## CCCCC/C=C\C/C=C\C/C=C\CCCCC(=O)OCCCOC(=O)Cc1c(C)n(C(=O)c2ccc(Cl)cc2)c2ccc(OC)cc12 [indomethacin-GLA]
[4]
  intracellular level after incubation (cell penetration): very substantial amounts of both indomethacin-GLA and free indomethacin

## CCCCCC=CCC=CCC=CCCCCC(=O)OCCCOC(=O)c1cccnc1 [niacin-GLA]
[2]; oral administration
  absorption and release of active moieties: absorbed following oral administration and to release their active moieties
